As a reminder, the EC50 is the concentration giving half of the maximal effect. The low end stands for a more potent agent, the high end for a less potent agent.

These results are taken from patent publication US8034940B2, “Modulators of glucocorticoid receptor, AP-1, and/or NF-κB activity and use thereof” (Bristol-Myers Squibb Company, priority 2006, dated 2011).

This experiment concerns AP-1 induced transcriptional activity. Briefly: Cellular Transrepressional Assay (AP-1 luciferase reporter, PMA-activated A549 cells). It counts as cell-based. To be noted: for AP-1 Max % inh (Cellular Transrepression Assay) / Emax: maximum inhibition; for Emax: A549, 7 h, read-out: AP-1 Max % inh (Cellular Transrepression Assay). Put shortly:
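Compounds tested from 0.1 nM to 40 μM during a 7 h PMA (10 ng/ml) stimulation of A549 cells stably transfected with 7× AP-1 sites driving luciferase. Repression expressed as % reduction of PMA-induced luminescence; EC50 by curve fitting.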
On the technique in general: Reporter assays use an easily measured gene product as a stand-in for the process of interest.

Setting [1] is: Homo sapiens, Cellular Transrepression Assay.
Where [2] appears, read: Homo sapiens, A549, Cellular Transrepression Assay.

`COc1ccc(CNC(=O)Oc2ccc3c(c2)Oc2ccccc2C3C(C)(C)C(=O)Nc2nncs2)cc1` (stereo not drawn) [Example 391]: where the note is “Cellular Transrepression Assay”, the concentration giving a half-maximal response (EC50) was 52 nM and the “AP-1 Max % inh (Cellular Transrepression Assay)” value (shortened to “AP-1 Max % inh”) is recorded as 44.08%.
Regarding `CC(C)(C(=O)Nc1nncs1)C1c2ccccc2Oc2cc(OC(=O)NCC3CCCCC3)ccc21` (stereo not drawn) [Example 392], where the note is “Cellular Transrepression Assay”, the midpoint of the response, the EC50, lay at 49.7 nM and the “AP-1 Max % inh” value was 44.82%.
Regarding `CC(C)(C(=O)Nc1nncs1)C1c2ccccc2Oc2cc(OC(=O)NCc3ccco3)ccc21` (stereo not drawn) [Example 393], under “Cellular Transrepression Assay”, the concentration for a half-maximal effect (EC50) was found to be 53.4 nM and the “AP-1 Max % inh” value worked out at 43.80%.
Take `CC(C)(C(=O)NC#N)[C@H]1c2ccccc2Oc2nc(-c3ccc(C(=O)N4CCCC4)c(F)c3)ccc21` [Example 398]: the Emax under setting [1] is 50%. Under setting [2], this compound returned an EC50 of 480 nM.
Consider `CC(C)(O)c1ccc(-c2ccc3c(n2)Oc2ccccc2[C@@H]3C(C)(C)C(=O)NC#N)cc1` [Example 399], for which the Emax under setting [1] turned out to be 69.3%. Also, the EC50 under setting [2] amounted to 333 nM.
As for `CC(C)(C(=O)Nc1nncs1)[C@H]1c2ccccc2Oc2nc(NC(=O)NCCN3CCCC3)ccc21` [Example 401], the Emax under setting [1] was found to be 35.1%. Besides, under setting [2], a half-maximal effect (EC50) was put at 778 nM.
`CC(C)(O)c1ccc(-c2ccc3c(n2)Oc2ccccc2[C@@H]3C(C)(C)C(=O)Nc2nncs2)cc1` [Example 404]: under setting [1], the Emax is 70.6%. For the same compound, under setting [2], it took 22.5 nM to reach a half-maximal effect (EC50).
Take `CC(C)(C(=O)Nc1nncs1)[C@H]1c2ccccc2Oc2nc(C3=CCN(C(=O)N4CCCC4)CC3)ccc21` [Example 408]: the Emax under setting [1] was found to be 24.1%. This compound yielded an EC50 under setting [2] of 364 nM.
For the compound `CC(C)(C(=O)Nc1ncc(C#N)s1)[C@H]1c2ccccc2Oc2nc(-c3ccc(C(=O)N4CCCC4)c(F)c3)ccc21` [Example 410], under setting [1], the Emax is 48.1%. It took 53.3 nM to reach a half-maximal effect under setting [2] (EC50).
Consider `CC(C)(C(=O)Nc1ncc([N+](=O)[O-])s1)[C@H]1c2ccccc2Oc2nc(-c3ccc(C(=O)N4CCCC4)c(F)c3)ccc21` [Example 411], for which the Emax under setting [1] is 58.5%. This compound registered a concentration for a half-maximal effect (EC50) under setting [2] of 161 nM.
As to `CCOC(=O)c1nnc(NC(=O)C(C)(C)[C@H]2c3ccccc3Oc3nc(-c4ccc(C(=O)N5CCCC5)c(F)c4)ccc32)s1` [Example 417], the Emax under setting [1] was found to be 54.1%. Moreover, a half-maximal response under setting [2] (EC50) required 67.3 nM.
On to `CC(C)(C(=O)Nc1nnc(C(N)=O)s1)[C@H]1c2ccccc2Oc2nc(-c3ccc(C(=O)N4CCCC4)c(F)c3)ccc21` [Example 418], for which the Emax under setting [1] stood at 29.1%. A half-maximal effect under setting [2] (EC50) was put at 82.1 nM.
Turning to `CNC(=O)c1nnc(NC(=O)C(C)(C)[C@H]2c3ccccc3Oc3nc(-c4ccc(C(=O)N5CCCC5)c(F)c4)ccc32)s1` [Example 419], the Emax under setting [1] turned out to be 46.6%. This compound yielded an EC50 under setting [2] of 71.9 nM.
`CN(C)C(=O)c1nnc(NC(=O)C(C)(C)[C@H]2c3ccccc3Oc3nc(-c4ccc(C(=O)N5CCCC5)c(F)c4)ccc32)s1` [Example 420]: under setting [1], the Emax turned out to be 42.1%. In addition, the midpoint of the response under setting [2], the EC50, lay at 41.9 nM.
For `CCNC(=O)c1nnc(NC(=O)C(C)(C)[C@H]2c3ccccc3Oc3nc(-c4ccc(C(=O)N5CCCC5)c(F)c4)ccc32)s1` [Example 421] the same measures were 42.6% and 49.8 nM.
Taken in the same sequence, the figures for `CC(C)(C(=O)Nc1nnc(C(=O)NC2CC2)s1)[C@H]1c2ccccc2Oc2nc(-c3ccc(C(=O)N4CCCC4)c(F)c3)ccc21` [Example 422] were 41.6% and 84.1 nM.
In the case of `CC(C)(C(=O)Nc1nnc(C(=O)NC2CC2)s1)[C@H]1c2ccccc2Oc2nc(-c3ccc(C(=O)N4CCOCC4)cc3)ccc21` [Example 422], the Emax under setting [1] was determined as 63.5%. The compound also gave an EC50 under setting [2] of 46.7 nM.
Consider `CNC(=O)c1nnc(NC(=O)C(C)(C)[C@H]2c3ccccc3Oc3nc(-c4ccc(C(=O)N5CCOCC5)cc4)ccc32)s1` [Example 422], for which the Emax under setting [1] is 50.5%. Under setting [2], this compound showed an EC50 of 51.5 nM.
For `CC(C)(C(=O)Nc1nnc(CO)s1)[C@H]1c2ccccc2Oc2nc(-c3ccc(C(=O)N4CCCC4)c(F)c3)ccc21` [Example 423], the Emax under setting [1] was determined as 30.4%. This compound returned an EC50 under setting [2] of 82 nM.
For `CSc1cnc(NC(=O)C(C)(C)[C@H]2c3ccccc3Oc3nc(-c4ccc(C(=O)N5CCCC5)c(F)c4)ccc32)s1` [Example 424], under setting [1], the Emax came to 59.6%. The same compound displayed an EC50 under setting [2] of 150 nM.
On to `CSc1nnc(NC(=O)C(C)(C)[C@H]2c3ccccc3Oc3nc(-c4ccc(C(=O)N5CCCC5)c(F)c4)ccc32)s1` [Example 425], for which the Emax under setting [1] came out at 49.9%. Also, the midpoint of the response under setting [2], the EC50, lay at 84.4 nM.
`CC(C)(C(=O)Nc1ncc(S(C)(=O)=O)s1)[C@H]1c2ccccc2Oc2nc(-c3ccc(C(=O)N4CCCC4)c(F)c3)ccc21` [Example 426]: under setting [1], the Emax came to 31.8%. The EC50 under setting [2] came to 117 nM.
For `C[S+]([O-])c1cnc(NC(=O)C(C)(C)[C@H]2c3ccccc3Oc3nc(-c4ccc(C(=O)N5CCCC5)c(F)c4)ccc32)s1` (stereo partly drawn) [Example 427] the same measures were 25.1% and 188 nM.
Taken in the same sequence, the figures for `CC(C)(C(=O)Nc1nnc(N)s1)[C@H]1c2ccccc2Oc2nc(-c3ccc(C(=O)N4CCCC4)c(F)c3)ccc21` [Example 428] were 26.9% and 30.3 nM.
For `CN(C)c1nnc(NC(=O)C(C)(C)[C@H]2c3ccccc3Oc3nc(-c4ccc(C(=O)N5CCCC5)c(F)c4)ccc32)s1` [Example 429], under setting [1], the Emax stood at 41.8%. For the same compound, under setting [2], a half-maximal effect (EC50) was put at 67.3 nM.
For `CC(C)(C(=O)Nc1nnc(CF)s1)[C@H]1c2ccccc2Oc2nc(-c3ccc(C(=O)N4CCOCC4)cc3)ccc21` [Example 430] the same measures were 47.2% and 34.7 nM.
Taken in the same sequence, the figures for `CC(C)(C(=O)Nc1nnc(CF)s1)[C@H]1c2ccccc2Oc2nc(-c3ccc(C(=O)N4CCCC4)c(F)c3)ccc21` [Example 431] were 41.8% and 69 nM.
For the compound `CN(C)C(=O)c1ccc(-c2ccc3c(n2)Oc2ccccc2[C@@H]3C(C)(C)C(=O)Nc2nnc(CF)s2)cc1` [Example 432], the Emax under setting [1] worked out at 40.2%. The compound further came in with an EC50 under setting [2] of 52.7 nM.
For `CC(C)(C(=O)Nc1nnc(CF)s1)[C@H]1c2ccccc2Oc2nc(-c3ccc(C(=O)N4CCCC4)cc3)ccc21` [Example 433] the same measures were 46.2% and 41 nM.
On to `CC(C)(C(=O)Nc1nnc(C#N)s1)[C@H]1c2ccccc2Oc2nc(-c3ccc(C(=O)N4CCOCC4)cc3)ccc21` [Example 434], for which, under “Cellular Transrepression Assay”, a half-maximal response (EC50) required 197 nM and the “AP-1 Max % inh” value is 38.45%.
With `CC(C)(C(=O)Nc1nnc(C#N)s1)[C@H]1c2ccccc2Oc2nc(-c3ccc(C(=O)N4CCCC4)c(F)c3)ccc21` [Example 435], the Emax under setting [1] amounted to 27.9%. Besides, it took 292 nM to reach a half-maximal effect under setting [2] (EC50).
As for `CCCC/C=C/c1ccc2c(n1)Oc1ccccc1[C@@H]2C(C)(C)C(=O)Nc1nncs1` [Example 436], the Emax under setting [1] turned out to be 44%. Under setting [2], this compound had a 50% effective concentration (EC50) of 95.7 nM.
In the case of `CN(C)C(=O)c1ccc(-c2ccc3c(n2)Oc2ccccc2C3C(C)(C)C(=O)Nc2ncns2)cc1` (stereo not drawn) [Example 441], under setting [1], the Emax is 52.4%. The same compound gave an EC50 under setting [2] of 63.9 nM.
Regarding `CN(C)C(=O)c1ccc(-c2ccc3c(n2)Oc2ccccc2C3C(C)(C)C(=O)NC2=NCCS2)cc1` (stereo not drawn) [Example 442], the Emax under setting [1] was 50.1%. The compound also registered a concentration giving a half-maximal response (EC50) under setting [2] of 127 nM.
For `Cc1csc(NC(=O)C(C)(C)[C@H]2c3ccccc3Oc3nc(-c4ccc(C(=O)N(C)C)cc4)ccc32)n1` [Example 443] the same measures were 51.7% and 134 nM.
Taken in the same sequence, the figures for `Cc1cnc(NC(=O)C(C)(C)[C@H]2c3ccccc3Oc3nc(-c4ccc(C(=O)N(C)C)cc4)ccc32)s1` [Example 444] were 57.5% and 44.2 nM.
With `Cc1nnc(NC(=O)C(C)(C)[C@H]2c3ccccc3Oc3nc(-c4ccc(C(=O)N(C)C)cc4)ccc32)s1` [Example 445], the Emax under setting [1] was 45.7%. This compound also came in with an EC50 under setting [2] of 38.5 nM.
In the case of `CN(C)C(=O)c1ccc(-c2ccc3c(n2)Oc2ccccc2[C@@H]3C(C)(C)C(=O)Nc2nnc(C(F)(F)F)s2)cc1` [Example 446], the Emax under setting [1] came to 27.7%. For the same compound, under setting [2], the half-maximal effective concentration (EC50) came out at 413 nM.
For `CCc1nnc(NC(=O)C(C)(C)[C@H]2c3ccccc3Oc3nc(-c4ccc(C(=O)N(C)C)cc4)ccc32)s1` [Example 447] the same measures were 53% and 95.4 nM.
For `CN(C)C(=O)c1ccc(-c2ccc3c(n2)Oc2ccccc2[C@@H]3C(C)(C)C(=O)Nc2nnc(C3CC3)s2)cc1` [Example 448], the Emax under setting [1] stood at 56.6%. The response under setting [2] was half-maximal at 178 nM (EC50).
Turning to `Cc1nsc(NC(=O)C(C)(C)[C@H]2c3ccccc3Oc3nc(-c4ccc(C(=O)N(C)C)cc4)ccc32)n1` [Example 449], the Emax under setting [1] amounted to 48.9%. Moreover, under setting [2], the concentration giving a half-maximal response (EC50) was 126 nM.
Turning to `CC(C)(C(=O)Nc1nncs1)[C@H]1c2ccccc2Oc2nc(-c3cn[nH]c3)ccc21` [Example 450], the Emax under setting [1] was 26.3%. The same compound displayed an EC50 under setting [2] of 59.2 nM.
As to `CC(=O)c1ccc(-c2ccc3c(n2)Oc2ccccc2[C@@H]3C(C)(C)C(=O)Nc2nncs2)s1` [Example 452], under setting [1], the Emax was determined as 53.4%. In addition, the EC50 under setting [2] was found to be 11.1 nM.
Taken in the same sequence, the figures for `CCN(C)C(=O)c1ccc(-c2ccc3c(n2)Oc2ccccc2[C@@H]3C(C)(C)C(=O)Nc2ncns2)cc1F` [Example 454] were 49.5% and 25.3 nM.
For `CC(C)(C(=O)Nc1ncns1)[C@H]1c2ccccc2Oc2nc(-c3ccc(C(=O)N4CCCC4)cc3)ccc21` [Example 455], the Emax under setting [1] was determined as 58.6%. The compound also came in with an EC50 under setting [2] of 24.6 nM.
Consider `CC(C)(C(=O)Nc1ncns1)[C@H]1c2ccccc2Oc2nc(-c3ccc(C(=O)N4CCCC4)c(F)c3)ccc21` [Example 456], for which the Emax under setting [1] was determined as 45.8%. Also, the EC50 under setting [2] stood at 41.5 nM.
As for `CC(C)(C(=O)Nc1ncns1)[C@H]1c2ccccc2Oc2nc(-c3ccc(C(=O)N4CCOCC4)cc3)ccc21` [Example 457], under setting [1], the Emax stood at 51.9%. The EC50 under setting [2] worked out at 16.6 nM.
Turning to `CC(C)Oc1ccc(-c2ccc3c(n2)Oc2ccccc2[C@@H]3C(C)(C)C(=O)Nc2ncns2)cc1` [Example 458], under setting [1], the Emax is 35.2%. For the same compound, the 50% effective concentration (EC50) under setting [2] amounted to 53.2 nM.
